For one test, the system named is Aspergillus niger. As to the kind of experiment: Antifungal activity against Aspergillus niger by agar plate disk diffusion method. Type of test: functional.
The subject of the next test is Escherichia coli. The test can be described thus: Antimicrobial activity against Escherichia coli by agar plate disk diffusion method. Type of test: functional. In general terms: Agar diffusion results depend on both activity and mobility in agar.
The next test relates to HEK-293T. The test can be described thus: Cytotoxicity against human HEK293T cells by MTT assay. Type of test: functional, cell-based. Background: Tetrazolium assays rely on reduction of a dye to a coloured formazan, in cell work by metabolically active cells.
A further test relates to HL-60. As to the kind of experiment: Cytotoxicity against human HL60 cells by MTT assay. Type of test: functional, cell-based.
The subject of the next test is HEp-2. The test can be described thus: Cytotoxicity against human Hep2 cells by MTT assay. It is filed as functional, cell-based.
The test system of another test is Pseudomonas aeruginosa. As to the kind of experiment: Antimicrobial activity against Pseudomonas aeruginosa by agar plate disk diffusion method. It is filed as functional.
The next test deals with Streptococcus pyogenes. The test can be described thus: Antimicrobial activity against Streptococcus pyogenes by agar plate disk diffusion method. Type of test: functional.
The subject of a further test is Staphylococcus aureus. The test can be described thus: Antimicrobial activity against Staphylococcus aureus by agar plate disk diffusion method. It is filed as functional.

In brackets after ≈: the same amount, converted by molar mass.

With NYSTATIN, in the test on Aspergillus niger, the lowest concentration to inhibit growth (MIC) was 100 µg/mL.

As for `O=c1cc(Cc2c3ccccc3nc3ccccc23)c2ccc(Cl)cc2o1`, the MIC was 50 µg/mL (≈ 134 µM) against Escherichia coli; 1000 µg/mL (≈ 2690 µM) against Aspergillus niger; 500 µg/mL (≈ 1340 µM) in the test on Pseudomonas aeruginosa; 250 µg/mL (≈ 672 µM) against Streptococcus pyogenes; 50 µg/mL (≈ 134 µM) against Staphylococcus aureus. The IC50 in the test on HEK-293T was over 100 µM; with HL-60, 27.5 µM; with HEp-2, over 100 µM.

As to `O=c1cc(Cc2c3ccccc3nc3ccccc23)c2ccc([N+](=O)[O-])cc2o1`, the minimum inhibitory concentration (MIC) against Escherichia coli turned out to be 100 µg/mL (≈ 262 µM); with Aspergillus niger, 500 µg/mL (≈ 1310 µM); in the test on Pseudomonas aeruginosa, 200 µg/mL (≈ 523 µM); against Streptococcus pyogenes, 500 µg/mL (≈ 1310 µM); against Staphylococcus aureus it was 250 µg/mL (≈ 654 µM). The concentration for half-maximal inhibition (IC50) in the test on HEK-293T, in the test with HL-60 and in the test on HEp-2 was over 100 µM each time.

Turning to `O=P1(N(CCCl)CCCl)NCCCO1` (stereo not drawn) [CYCLOPHOSPHAMIDE ANHYDROUS], the IC50 with HEK-293T is over 100 µM; in the test on HL-60, 8.79 µM; with HEp-2 it was over 100 µM.

Turning to `O=c1cc(Cc2c3ccccc3nc3ccccc23)c2cc(Cl)ccc2o1`, the MIC against Escherichia coli stood at 75 µg/mL (≈ 202 µM); in the test with Aspergillus niger it was 1000 µg/mL (≈ 2690 µM); against Pseudomonas aeruginosa, 25 µg/mL (≈ 67.2 µM); against Streptococcus pyogenes, 75 µg/mL (≈ 202 µM); in the test with Staphylococcus aureus it was 250 µg/mL (≈ 672 µM). In addition, the IC50 was over 100 µM in the test on HEK-293T, 28.7 µM in the test on HL-60 and over 100 µM in the test on HEp-2.

In the case of `O=c1cc(Cc2c3ccccc3nc3ccccc23)c2ccccc2o1`, the MIC against Escherichia coli is 250 µg/mL (≈ 741 µM); against Aspergillus niger, 500 µg/mL (≈ 1480 µM); in the test with Pseudomonas aeruginosa, 250 µg/mL (≈ 741 µM); in the test with Streptococcus pyogenes it was 250 µg/mL (≈ 741 µM); in the test with Staphylococcus aureus, 250 µg/mL (≈ 741 µM). Further, the IC50 in the test with HEK-293T, with HL-60 and with HEp-2 was over 100 µM throughout.

Take `COC1=CC(=O)C[C@@H](C)[C@]12Oc1c(Cl)c(OC)cc(OC)c1C2=O` [GRISEOFULVIN]: in the test with Aspergillus niger, 100 µg/mL (≈ 283 µM) was the least that counted as inhibitory (MIC).

As to `O=C(N[C@H](CO)[C@H](O)c1ccc([N+](=O)[O-])cc1)C(Cl)Cl` [CHLORAMPHENICOL], the MIC against Escherichia coli, in the test with Pseudomonas aeruginosa, in the test with Streptococcus pyogenes and against Staphylococcus aureus was 50 µg/mL (≈ 155 µM) throughout.

Consider `Cc1ccc2oc(=O)cc(Cc3c4ccccc4nc4ccccc34)c2c1`, for which the MIC was 125 µg/mL (≈ 356 µM) in the test on Escherichia coli; 500 µg/mL (≈ 1420 µM) against Aspergillus niger; 125 µg/mL (≈ 356 µM) in the test on Pseudomonas aeruginosa; 100 µg/mL (≈ 285 µM) in the test on Streptococcus pyogenes; 125 µg/mL (≈ 356 µM) against Staphylococcus aureus. Besides, the IC50 in the test with HEK-293T, in the test with HL-60 and in the test on HEp-2 was over 100 µM throughout.

Turning to `CCn1cc(C(=O)O)c(=O)c2cc(F)c(N3CCNCC3)cc21` [NORFLOXACIN], the MIC in the test on Escherichia coli, in the test on Pseudomonas aeruginosa, against Streptococcus pyogenes and against Staphylococcus aureus was 10 µg/mL (≈ 31.3 µM) throughout.

`O=C(O)c1cn(C2CC2)c2cc(N3CCNCC3)c(F)cc2c1=O` [CIPROFLOXACIN]: the minimal inhibitory concentration (MIC) in the test on Escherichia coli turned out to be 25 µg/mL (≈ 75.4 µM); with Streptococcus pyogenes it was 50 µg/mL (≈ 151 µM); with Staphylococcus aureus, 50 µg/mL (≈ 151 µM).

In the case of `CC1(C)S[C@@H]2[C@H](NC(=O)[C@H](N)c3ccccc3)C(=O)N2[C@H]1C(=O)O` [AMPICILLIN], the MIC against Escherichia coli was determined as 100 µg/mL (≈ 286 µM); in the test on Pseudomonas aeruginosa it was 100 µg/mL (≈ 286 µM); in the test on Streptococcus pyogenes, 100 µg/mL (≈ 286 µM); against Staphylococcus aureus it was 250 µg/mL (≈ 715 µM).

`O=c1cc(Cc2c3ccccc3nc3ccccc23)c2ccc(O)cc2o1`: the MIC against Escherichia coli was 200 µg/mL (≈ 566 µM); with Aspergillus niger, over 1000 µg/mL; in the test with Pseudomonas aeruginosa, 250 µg/mL (≈ 707 µM); against Streptococcus pyogenes, 500 µg/mL (≈ 1410 µM); in the test with Staphylococcus aureus it was 500 µg/mL (≈ 1410 µM). Besides, the IC50 in the test on HEK-293T, in the test with HL-60 and in the test on HEp-2 was over 100 µM throughout.

With `O=c1cc(Cc2c3ccccc3nc3ccccc23)c2cc(O)ccc2o1`, the MIC turned out to be 50 µg/mL (≈ 141 µM) against Escherichia coli, 100 µg/mL (≈ 283 µM) in the test with Pseudomonas aeruginosa, 250 µg/mL (≈ 707 µM) against Streptococcus pyogenes and 500 µg/mL (≈ 1410 µM) with Staphylococcus aureus. Moreover, the half-maximal inhibitory concentration (IC50) with HEK-293T, in the test with HL-60 and with HEp-2 was over 100 µM throughout.

Consider `Cc1ccc2c(Cc3c4ccccc4nc4ccccc34)cc(=O)oc2c1`, for which the MIC in the test with Escherichia coli came to 150 µg/mL (≈ 427 µM); in the test on Aspergillus niger it was 1000 µg/mL (≈ 2850 µM); in the test with Pseudomonas aeruginosa, 62.5 µg/mL (≈ 178 µM); with Streptococcus pyogenes it was 50 µg/mL (≈ 142 µM); in the test on Staphylococcus aureus, 500 µg/mL (≈ 1420 µM). Moreover, the IC50 in the test with HEK-293T, in the test with HL-60 and in the test on HEp-2 was over 100 µM in each case.

Broadly, the MIC is the lowest concentration that inhibits growth of the organism. High values mean a less susceptible organism, low ones a more susceptible organism. What is called IC50 is the concentration needed to halve the response being measured. A higher IC50 goes with lower potency.

(Values after ChEMBL document CHEMBL1268823, “Bernthsen synthesis, antimicrobial activities and cytotoxicity of acridine derivatives” (Bioorg Med Chem Lett, 2010).)
